Patent US11098059B2, “PRMT5 inhibitors” (Merck Sharp & Dohme Corp., priority 2017, dated 2021)
Where two headings read alike, the source gives them in different places.

Experiments:
[1] = target: Full-length (FL)-PRMT5-MEP50 enzyme complex (Homo sapiens (Human), UniProt O14744); test: PRMT5-MEP50 Enzyme Methylation Assay; type: biochemical; on Enzyme Methylation Assay IC50 1: top concentration 100000 nM
Experimental: PRMT5-MEP50 Enzyme Methylation Assay
PRMT5/MEP50 biochemical assay is a direct measurement of the methylation activity of the enzyme complex on a short peptide substrate derived from the N-terminus of H4 histone. The methylation experiment is performed with recombinant protein. The assessment of inhibitory effect (IC50) of small molecules is measured by the effectiveness of the compounds to inhibit this reaction.
To each well of a white ProxiPlus 384 well-plate, 100 nL of compound (1% DMSO in final assay volume of 10 μL) was dispensed, followed by the addition of 8 μL of 1× assay buffer (50 mM Bicine pH 8.0, 1 mM DTT, 0.004% Tween20, 0.01% BSA) containing 0.5 nM of Full-length (FL)-PRMT5-MEP50 enzyme complex (recombinant proteins from baculovirus-transfected Sf21 cells: FL-PRMT5; MW=[…] and FL-MEP50; MW=38614). Plates were sealed and placed in a 37° C. humidified chamber for 30 minutes pre-incubation with compounds. Subsequently, each reaction was initiated by the addition of 2 μL 1× assay buffer containing 75 nM biotinylated H4R3(Me1) peptide, and 15 μM S-(5′-Adenosyl)-L-Methionine Chloride (SAM). The final reaction in each well of 10 μL consists of 0.5 nM PRMT5-MEP50, 75 nM biotinylated-peptide, and 15 μM SAM. Methylation reactions were allowed to proceed for 150 minutes in a sealed plate at 37° C. Reactions were immediately quenched by the addition of 1 μL of 10% formic acid. Plates were then frozen and shipped to SAMDI™ Tech Inc. to determine the percent conversion from […]. IC50 values were determined by 7 parameters biphasic fit model plotting the percent product conversion vs. (Log10) compound concentrations.

PRMT5 = PRMT5 (Homo sapiens (Human), UniProt O14744); test: PRMT5 Cell Target Engagement (TE) Assay; type: cell-based; conditions: treated 3 days, nuclear SDMA by high content imaging, top concentration 10000 nM
Excerpt: PRMT5 Cell Target Engagement (TE) Assay
The PRMT5 TE assay is a biomarker assay for identifying compounds that inhibit symmetric dimethylation of arginine (SDMA) of PRMT5 substrates. This assay detects symmetrically dimethylated nuclear proteins using high content imaging technology. Detection of the expression of symmetrically dimethylated nucleo proteins is through a mixture of primary rabbit monoclonal antibodies to SDMA (CST 13222), which in turn recognized by an Alexafluor 488 dye-conjugated anti-rabbit IgG secondary antibody. The IN Cell Analyzer 2200 measures nuclear Alexafluor 488 fluorescent dye intensity that is directly related to the level of expression of symmetrically dimethylated nuclear proteins at the single cell level. Nuclear AF488 dye intensities are compared to the mean value for DMSO treated cells […] to report percent of inhibition for each compound-treated well.
Each well of a BD falcon collagen coated black/clear bottom 384-well plate was seeded with 4000 MCF-7 cells and allowed to attach for 5 hours. Media from cell plate was removed at 0.5 mm above the bottom of the plate and replaced with 30 μL of fresh media containing 1.2× compounds in 0.1% DMSO. Cells were treated for 3 days in 37° C. CO2 incubator. On day 3, cells were fixed with Cytofix, permeablized with 0.4% Triton-X-100/Cytofix, and washed with D-PBS without Ca/Mg. Cells were blocked with Licor Odessey blocking reagent for one hour at room temperature, followed by incubation with anti-SDMA (1:1000) antibody at 4° C. overnight. 1 antibody was removed, followed by three washings with DPBS without Ca/Mg and 0.05% Tween20. Hoechst (5 μg/ml), Cell Mask deep stain (1:2000) and Alexa488-conjugated goat anti-rabbit IgG (2 μg/mL) was added for 1 hour at room temperature. A final washing step (three washes) was performed before sealing plate for imaging on In Cell Analyzer 2200. Images from analyzer were uploaded to Columbus (at WP) for image analysis. IC50 values were determined by 4 parameters robust fit of percent fluorescence units vs. (Log10) compound concentrations.

[2] = read-out: Enzyme Methylation Assay IC50_1
[3] = read-out: Enzyme Methylation Assay IC50_2
[4] = MCF-7 cells, read-out: TE Assay EC50

Sequence of PRMT5 (O14744 whole entry): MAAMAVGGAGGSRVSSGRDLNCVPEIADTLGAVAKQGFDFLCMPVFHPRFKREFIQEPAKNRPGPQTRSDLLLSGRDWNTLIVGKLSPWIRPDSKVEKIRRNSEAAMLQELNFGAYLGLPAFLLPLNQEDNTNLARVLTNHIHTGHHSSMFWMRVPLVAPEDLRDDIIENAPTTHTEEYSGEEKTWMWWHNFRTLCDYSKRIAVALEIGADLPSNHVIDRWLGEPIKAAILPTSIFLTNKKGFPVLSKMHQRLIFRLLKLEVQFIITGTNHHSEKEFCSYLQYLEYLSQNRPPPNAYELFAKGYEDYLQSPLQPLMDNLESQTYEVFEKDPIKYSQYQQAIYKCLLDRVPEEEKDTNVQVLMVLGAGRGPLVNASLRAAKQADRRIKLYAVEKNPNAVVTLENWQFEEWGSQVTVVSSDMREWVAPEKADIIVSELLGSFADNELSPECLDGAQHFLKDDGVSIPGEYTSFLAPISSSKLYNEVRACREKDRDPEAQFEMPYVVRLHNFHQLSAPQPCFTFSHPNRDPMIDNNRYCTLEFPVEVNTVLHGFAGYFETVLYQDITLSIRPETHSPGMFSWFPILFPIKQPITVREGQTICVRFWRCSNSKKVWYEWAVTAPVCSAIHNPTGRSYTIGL
Sequence of PRMT5 (Q9BQA1 whole entry partner): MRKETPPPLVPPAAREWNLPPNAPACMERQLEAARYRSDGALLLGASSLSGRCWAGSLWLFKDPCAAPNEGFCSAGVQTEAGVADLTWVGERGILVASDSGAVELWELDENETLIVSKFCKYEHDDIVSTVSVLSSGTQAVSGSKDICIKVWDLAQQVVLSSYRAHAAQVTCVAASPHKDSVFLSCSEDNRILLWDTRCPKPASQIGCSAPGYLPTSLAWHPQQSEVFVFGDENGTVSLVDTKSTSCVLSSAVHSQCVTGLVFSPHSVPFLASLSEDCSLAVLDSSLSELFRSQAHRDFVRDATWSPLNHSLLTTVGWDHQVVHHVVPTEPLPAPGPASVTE
Sequence of Full-length (FL)-PRMT5-MEP50 enzyme complex (O14744 whole entry): as the sequence (O14744 whole entry) above
Sequence of Full-length (FL)-PRMT5-MEP50 enzyme complex (Q9BQA1 whole entry partner): as the sequence (Q9BQA1 whole entry partner) above

For `CC1(C)CN(C[C@@H](O)[C@@H]2Cc3ccccc3CN2)C(=O)c2ccc(Br)cc21` [Example 17, 6-bromo-2-((R)-2-hydroxy-2-((S)-1,2,3,4-tetrahydroisoquinolin-3-yl)ethyl)-4,4-dimethyl-3,4-dihydroisoquinolin-1(2H)-one], the IC50 [1, 2] was 0.61 nM, the IC50 [1, 3] was 368 nM and the EC50 (PRMT5; [4]) was 200 nM.
Molecule `CC[C@H]1CN(C[C@@H](O)[C@@H]2Cc3ccccc3CN2)C(=O)c2ccc(-c3ncnn3C)cc21` (single isomer, unassigned) [Example 7] has an IC50 [1, 2] of 0.31 nM, an IC50 [1, 3] of 313 nM and an EC50 (PRMT5; [4]) of 143 nM.
Work on `CC1(C)CN(C[C@H](O)[C@@H]2Cc3ccccc3CN2)C(=O)c2ccc(C(=O)N3C4COC5C4OCC53)cc21` [Example 28, 6-(hexahydro-3,6-epiminofuro[3,2-b]furan-7-carbonyl)-2-((S)-2-hydroxy-2-((S)-1,2,3,4-tetrahydroisoquinolin-3-yl)ethyl)-4,4-dimethyl-3,4-dihydroisoquinolin-1(2H)-one] yielded an IC50 [1, 2] of 34.3 nM, an IC50 [1, 3] of 34300 nM and an EC50 (PRMT5; [4]) of no less than 10000 nM.
Work on `CC1(C)CN(C[C@H](O)[C@@H]2Cc3ccccc3CN2)C(=O)c2ccc(Br)cc21` [Example 18, 6-bromo-2-((S)-2-hydroxy-2-((S)-1,2,3,4-tetrahydroisoquinolin-3-yl)ethyl)-4,4-dimethyl-3,4-dihydroisoquinolin-1(2H)-one] yielded an IC50 [1, 2] of 225 nM, an IC50 [1, 3] of no less than 100000 nM and an EC50 (PRMT5; [4]) of no less than 10000 nM.
`CO[C@@H]1C[C@H]2CC[C@@H](C1)N2C(=O)c1ccc2c(c1)C(C)(C)CN(C[C@@H](O)[C@@H]1Cc3ccccc3CN1)C2=O` [Example 25, 2-((R)-2-hydroxy-2-((S)-1,2,3,4-tetrahydroisoquinolin-3-yl)ethyl)-6-((1R,3S,5S)-3-methoxy-8-azabicyclo[3.2.1]octane-8-carbonyl)-4,4-dimethyl-3,4-dihydroisoquinolin-1(2H)-one] showed an IC50 [1, 2] of 0.44 nM, an IC50 [1, 3] of 50.1 nM and an EC50 (PRMT5; TE Assay EC50, MCF-7 cells) of 3.81 nM.
`CO[C@H]1C[C@H]2CC[C@@H](C1)N2C(=O)c1ccc2c(c1)C(C)(C)CN(C[C@H](O)[C@@H]1Cc3ccccc3CN1)C2=O` [Example 24, 2-((S)-2-hydroxy-2-((S)-1,2,3,4-tetrahydroisoquinolin-3-yl)ethyl)-6-((1R,3S,5S)-3-methoxy-8-azabicyclo[3.2.1]octane-8-carbonyl)-4,4-dimethyl-3,4-dihydroisoquinolin-1(2H)-one] showed an IC50 [1, 2] of 11.3 nM, an IC50 [1, 3] of 7500 nM and an EC50 (PRMT5; [4]) of 2640 nM.
For `O=C1c2ccc(-c3ncnn3C3CC3)cc2C2(CCC2)CN1C[C@@H](O)[C@@H]1Cc2ccccc2CN1` [Example 11, 6′-(1-cyclopropyl-1H-1,2,4-triazol-5-yl)-2′-{(2R)-2-hydroxy-2-[(3S)-1,2,3,4-tetrahydroisoquinolin-3-yl]ethyl}-2′,3′-dihydro-1′H-spiro[cyclobutane-1,4′-isoquinolin]-1′-one], the IC50 [1, 2] was 0.29 nM, the IC50 [1, 3] was 127 nM and the EC50 (PRMT5; [4]) was 17 nM.
`CC[C@H]1CN(C[C@@H](O)[C@@H]2Cc3ccccc3CN2)C(=O)c2ccc(Br)cc21` (single isomer, unassigned) [Example 2] gave an IC50 [1, 2] of 0.21 nM, an IC50 [1, 3] of 172 nM and an EC50 (PRMT5; [4]) of 213 nM.
`CC[C@H]1CN(C[C@@H](O)[C@@H]2Cc3ccccc3CN2)C(=O)c2ccc(-c3ncnn3C)cc21` (single isomer, unassigned) [Example 5] showed an IC50 [1, 2] of 465 nM, an IC50 [1, 3] of no less than 100000 nM and an EC50 (PRMT5; [4]) of no less than 10000 nM.
`CC[C@H]1CN(C[C@@H](O)[C@@H]2Cc3ccccc3CN2)C(=O)c2ccc(C(=O)N3C4CCC3COC4)cc21` (single isomer, unassigned) [Example 13] gave an IC50 [1, 2] of 0.36 nM, an IC50 [1, 3] of 270 nM and an EC50 (PRMT5; TE Assay EC50, MCF-7 cells) of 30 nM.
In the case of `CCC1CN(C[C@@H](O)[C@@H]2Cc3ccccc3CN2)C(=O)c2ccc(-c3ncnn3C3CC3)cc21` (single isomer, unassigned) [Example 10], the IC50 [1, 2] is reported as 0.4 nM, the IC50 [1, 3] is reported as 374 nM and the EC50 (PRMT5; [4]) is reported as 22.6 nM.
In the case of `CC1(C)CN(C[C@@H](O)[C@@H]2Cc3ccccc3CN2)C(=O)c2ccc(-c3ncnn3C3CC3)cc21` [Example 9, 6-(1-cyclopropyl-1H-1,2,4-triazol-5-yl)-2-{(2R)-2-hydroxy-2-[(3S)-1,2,3,4-tetrahydroisoquinolin-3-yl]ethyl}-4,4-dimethyl-3,4-dihydroisoquinolin-1(2H)-one], the IC50 [1, 2] is reported as 0.47 nM, the IC50 [1, 3] is reported as 422 nM and the EC50 (PRMT5; [4]) is reported as 29.5 nM.
`CC1(C)CN(C[C@H](O)[C@@H]2Cc3ccccc3CN2)C(=O)c2ccc(C(=O)N3C4CCC3COC4)cc21` [Example 20, 6-(3-oxa-8-azabicyclo[3.2.1]octane-8-carbonyl)-2-((S)-2-hydroxy-2-((S)-1,2,3,4-tetrahydroisoquinolin-3-yl)ethyl)-4,4-dimethyl-3,4-dihydroisoquinolin-1(2H)-one] was tested, and the IC50 [1, 2] was 12.9 nM, the IC50 [1, 3] was 4070 nM and the EC50 (PRMT5; [4]) was 153 nM.
`CO[C@@H]1C[C@H]2CC[C@@H](C1)N2C(=O)c1ccc2c(c1)C(C)(C)CN(C[C@H](O)[C@@H]1Cc3ccccc3CN1)C2=O` [Example 26, 2-((S)-2-hydroxy-2-((S)-1,2,3,4-tetrahydroisoquinolin-3-yl)ethyl)-6-((1R,3R,5S)-3-methoxy-8-azabicyclo[3.2.1]octane-8-carbonyl)-4,4-dimethyl-3,4-dihydroisoquinolin-1(2H)-one] was tested, and the IC50 [1, 2] was 24.3 nM, the IC50 [1, 3] was 14600 nM and the EC50 (PRMT5; [4]) was 4630 nM.
For `CC1(C)CN(C[C@H](O)[C@@H]2Cc3ccccc3CN2)C(=O)c2ccc(C(=O)N3[C@@H]4CC[C@H]3C[C@@H](O)C4)cc21` [Example 22, 2-((S)-2-hydroxy-2-((S)-1,2,3,4-tetrahydroisoquinolin-3-yl)ethyl)-6-((1R,3S,5S)-3-hydroxy-8-azabicyclo[3.2.1]octane-8-carbonyl)-4,4-dimethyl-3,4-dihydroisoquinolin-1(2H)-one], the IC50 [1, 2] was 50.1 nM, the IC50 [1, 3] was 15300 nM and the EC50 (PRMT5; [4]) was 5280 nM.
For `CC1(C)CN(C[C@@H](O)[C@@H]2Cc3ccccc3CN2)C(=O)c2ccc(C(=O)N3C4CCC3COC4)cc21` [Example 19, 6-(3-oxa-8-azabicyclo[3.2.1]octane-8-carbonyl)-2-((R)-2-hydroxy-2-((S)-1,2,3,4-tetrahydroisoquinolin-3-yl)ethyl)-4,4-dimethyl-3,4-dihydroisoquinolin-1(2H)-one], the IC50 [1, 2] was 0.53 nM, the IC50 [1, 3] was 138 nM and the EC50 (PRMT5; TE Assay EC50, MCF-7 cells) was 9.5 nM.
In the case of `CC1(C)CN(C[C@@H](O)[C@@H]2Cc3ccccc3CN2)C(=O)c2ccc(N3C(=O)C4CCC3CC4)cc21` [Example 29, 2-{(2R)-2-hydroxy-2-[(3S)-1,2,3,4-tetrahydroisoquinolin-3-yl]ethyl}-4,4-dimethyl-6-(3-oxo-2-azabicyclo[2.2.2]octan-2-yl)-3,4-dihydroisoquinolin-1(2H)-one], the IC50 [1, 2] is reported as 0.84 nM, the IC50 [1, 3] is reported as 359 nM and the EC50 (PRMT5; [4]) is reported as 74.4 nM.
`CC[C@H]1CN(C[C@@H](O)[C@@H]2Cc3ccccc3CN2)C(=O)c2ccc(Br)cc21` (single isomer, unassigned) [Example 4] showed an IC50 [1, 2] of 45.8 nM, an IC50 [1, 3] of 25800 nM and an EC50 (PRMT5; [4]) of no less than 10000 nM.
In the case of `CC[C@H]1CN(C[C@@H](O)[C@@H]2Cc3ccccc3CN2)C(=O)c2ccc(C(=O)N3C4CCC3COC4)cc21` (single isomer, unassigned) [Example 16], the IC50 [1, 2] is reported as 17.6 nM, the IC50 [1, 3] is reported as 8840 nM and the EC50 (PRMT5; [4]) is reported as 829 nM.
